We go through twelve compounds from PMC10694292, “Increased sinusoidal export of drug glucuronides is a compensative mechanism in liver cirrhosis of mice” (Frontiers in Pharmacology, 2023).

The conditions of data set [1]: rat, cited from earlier work.
The conditions of data set [2]: humans, cited from earlier work; for Recovered from urine: after a single oral dose, ref Knauf and Mutschler, 1998, FDA.
The conditions of data set [3]: human, cited from earlier work.
The conditions of data set [4]: human, cited from earlier work. The source holds these as a separate data set.
For data set [5] the following is noted: mouse, in vivo.
The conditions of data set [6]: cited from earlier work.
For data set [7] the following is noted: cited from earlier work. The source holds these as a separate data set.
Data set [8] can be described thus: Drug cocktail i.v. in mice: 24 h urine, fraction of dose excreted. As to conditions: for Mean fraction of dose excreted to urine: mice, after drug cocktail administration; for Fraction of dose in urine (24 h), cirrhotic vs control mice: i.v. drug cocktail.
The conditions of data set [9]: cited from earlier work. This is another data set of the same source.
For data set [10] the following is noted: cited from earlier work. This is another data set of the same source.
Data set [11] can be described thus: Drug cocktail i.v. in CCl4-cirrhotic and control mice: plasma concentrations and AUC. As to conditions: for Measured plasma concentrations in cirrhotic mice vs PBPK-predicted concentrations: 15-120 min after cocktail, prediction with CYP activity at 11%; for Phase I metabolite in blood (formation), cirrhotic vs control, experimental data: i.v. drug cocktail.
Data set [12] is described as follows: Chronic CCl4 treatment (12 months): blood chemistry and bile acids. The format is in vivo, mice. On the procedure:
Male C57 Black 6/N 8–10-week-old mice were used (Janvier Labs, France). The mice were housed under standard environmental conditions with ad libitum feeding on a normal rodent diet (Ssniff, Soest, Germany) and with free access to water. To induce chronic liver damage, the mice were treated repeatedly with carbon tetrachloride (CCl4, 1 G/kg intraperitoneal) twice per week for 12 months ([Ghallab et al., 2019b]; [Holland et al., 2022]). The control mice received the vehicle only (olive oil, application volume 4 mL/kg intraperitoneal). On day 6, after the last CCl4/oil injection, blood as well as liver tissue samples were collected, as previously described ([Ghallab et al., 2016]). All experiments were approved by the local animal protection authorities (application number: 84-02.04.2017. A177).
ALT, AST, and ALP activities as well as albumin concentrations of plasma samples were measured with a 1:1 dilution in PBS using a Piccolo Xpress® chemistry analyzer and General Chemistry 13 panels (Hitado, Möhnesee, Germany).
Plasma concentrations of bile acids were analyzed using negative electrospray (ESI) liquid chromatography-tandem mass spectrometry (LC-MS/MS), as previously described ([Ghallab et al., 2022]).

Data set [13] in a line: Drug cocktail i.v. in mice: 2 h bile, fraction of dose excreted. As to conditions: for Mean fraction of dose excreted to bile: mice, 2 h after drug administration.
The mark [14] stands for this setting: optimized, ref Krauss et al., 2017.
[15] abbreviates: DrugBank, experimental, ref Wishart et al., 2017.
The mark [16] stands for this setting: DrugBank, predicted AlogPS, ref Wishart et al., 2017.
The mark [17] stands for this setting: DrugBank, predicted ChemAxon, ref Wishart et al., 2017.
The mark [18] stands for this setting: optimized (mouse), ref Schenk et al., 2017.
Where [19] appears, read: experimental, ref Vree and Verwey-van Wissen.
[20] abbreviates: experimental (morphine: logP uncharged), ref Avdeef, 1996.
[21] abbreviates: predicted ACD, ref Nguyen et al., 2016.
Setting [22] is: predicted, ref Wishart et al., 2017.

Several values for one entry are separate records, joined by “and”; a condition that tells them apart may be missing. Identical values can stand only once. Like-named read-outs stand apart in the source and are kept apart here. A value given as a limit tells only on which side of the number the result lay.

One may read the Solubility as the dissolved amount per volume that the medium holds. Broadly, the pKa is the negative logarithm of the acid dissociation constant. Regarding `Cc1cccc(Nc2ccncc2S(=O)(=O)NC(=O)NC(C)C)c1` [Torsemide, torsemide], the Fraction unbound in data set [1] (experimental, ref Lee et al., 2005) is on record as 0.061; in data set [1] (experimental, ref Lee et al., 2005, listed as torsemide) it was 0.06; in data set [3] (experimental, ref Knauf and Mutschler, 1998, Wishart et al., 2017) it was less than 0.01; in [4] (setting [14]) it was 0.00125. Moreover, the Recovered from urine result in data set [2] (2017) is “about 20%”. Moreover, the “Share excreted to urine” value in data set [2] (ref FDA, 2017) is “about 20%”. For the same compound, the “Share of drug clearance by hepatic metabolism” value in [2] (ref FDA, 2017) is “about 80%”. Further, the “Mean fraction of dose excreted to urine” value in data set [5] came to 4%. The “Fraction of dose in urine (24 h), cirrhotic vs control mice” value (“Fraction of dose … vs control mice” for short) in data set [5] (iv) is on record as “increased significantly”. The Lipophilicity is 3.356 in data set [6] (setting [15]); 1.76 in [6] (setting [16]); 1.86 in data set [6] (setting [17]); 2.023 in data set [6] (mouse, optimized, ref Thiel et al., 2015); 2.3 in data set [6] (setting [18]); 0.57 in [6] (ref Knauf and Mutschler, 1998). Moreover, the Solubility in data set [6] (setting [16]) was 55.96 µg/mL. In addition, the pKa in data set [6] (ref FDA, 2017, Wishart et al.) was 7.1; in data set [6] (ref Knauf and Mutschler, 1998) it was 7. Also, the “Dose found in bile” value in data set [7] (rat, after 8h cannulation, ref Lee et al., 2005) is listed as “about 2%”. For the same compound, in data set [7] (ref Lee 2005), the “Tissue-to-plasma ratio, liver” value is listed as 0.336. Further, the “Tissue-to-plasma ratio, muscle” value in data set [7] (ref Lee 2005) is recorded as 0.069.
Turning to `Cn1c(=O)[nH]c2ncn(C)c2c1=O` [Paraxanthine, 1,7-Dimethylxanthine], the Fraction unbound in data set [1] (measured, ref Bortolotti et al., 1985) is on record as 0.85; in data set [3] (measured, ref Lelo et al., 1986), 0.56. The “Mean fraction of dose excreted to urine” value in data set [5] stood at 2%. In addition, the Solubility in data set [6] (DrugBank, AlogPS prediction, ref Wishart et al., 2017) is 9130 µg/mL. The Lipophilicity is recorded as -0.63 in data set [6] (setting [16]) and 0.27 in [6] (setting [17]). Besides, the pKa result in data set [6] (ref FooDB) is on record as “Neutral”.
Turning to `CN1CC[C@]23c4c5ccc(O)c4O[C@H]2[C@@H](O)C=C[C@H]3[C@H]1C5` [Morphine, morphine], the “Mean fraction of dose excreted to urine” value in [8] is on record as 1%.
For the compound `Cn1c(=O)c2c(ncn2C)n(C)c1=O` [Caffeine, caffeine], the “Fraction excreted unchanged to urine” value was 0.5-2% in data set [2] (ref Nehlig, 2018) and “about 5%” in data set [9] (mice, ref Bonati et al., 1985). The “Share of systemic clearance due to Cyp1a2” value in data set [9] (C57BL/6N mice, ref Buters et al., 1996) is on record as 88%. In data set [5], the “Mean fraction of dose excreted to urine” value turned out to be 1%. In [10] (mouse), the Fraction unbound is reported as 0.70.
`COc1ccc2c3c1O[C@H]1[C@@H](O[C@@H]4O[C@H](C(=O)O)[C@@H](O)[C@H](O)[C@H]4O)C=C[C@H]4[C@@H](C2)N(C)CC[C@@]341` [C6G, codeine-6-glucuronide]: the “Measured plasma concentrations in cirrhotic mice vs PBPK-predicted concentrations” value in [11] was “much higher”. Moreover, in data set [8], the “Fraction of dose … vs control mice” value was “higher” and the “Mean fraction of dose excreted to urine” value is 1%. Also, the Fraction unbound in data set [3] (setting [19]) is 0.44. In addition, in data set [6] (setting [16]), the Lipophilicity is on record as -0.23 and the Solubility is 4310 µg/mL. In addition, in data set [6] (setting [17]), the Lipophilicity was -2.8.
For `ClC(Cl)(Cl)Cl` [CCl4, carbon tetrachloride], the “Plasma ALT” value in data set [12] (CCl4 1 g/kg i.p. twice per week, 12 months, vs oil) is “increased”. For the same compound, in [12] (CCl4 12 months vs oil), the ALP result is given as “no significant changes”, the Albumin entry is recorded as “no significant changes”, the “Plasma AST” value is on record as “increased” and the “Serum bile acid levels” value is given as “increased”.
In the case of `COc1ccc2c3c1O[C@H]1[C@@H](O)C=C[C@H]4[C@@H](C2)NCC[C@@]341` [Norcodeine, norcodeine], in [11], the “Phase I metabolite in blood (formation), cirrhotic vs control, experimental data” value was “reduced formation”. In addition, the “Mean fraction of dose excreted to urine” value in data set [8] was 3%. For the same compound, the Fraction unbound in data set [3] (setting [19]) was 0.765. Moreover, the Lipophilicity was 0.99 in data set [6] (setting [16]), 0.96 in data set [6] (setting [17]) and 0.69 in [6] (setting [20]). Also, in data set [6] (ref Avdeef, 1996), the “pKa (Base)” value is given as 9.22.
Consider `O=C(O)[C@H]1O[C@@H](OCc2ncc3n2-c2ccc(Cl)cc2C(c2ccccc2F)=NC3)[C@H](O)[C@@H](O)[C@@H]1O` [OH-MDZ-G, 1-hydroxymidazolam glucuronide], for which, in data set [11], the “Measured plasma concentrations in cirrhotic mice vs PBPK-predicted concentrations” value is “much higher”. Also, the “Fraction of dose … vs control mice” value in data set [8] was “higher”. The “Mean fraction of dose excreted to bile” value in [13] is listed as 1.2%. In addition, the Lipophilicity in data set [6] (ref Vossen et al., 2007) is 1.4.
Consider `CC(C)NC(=O)NS(=O)(=O)c1cnccc1Nc1cccc(CO)c1` [OH-torsemide, hydroxy torsemide], for which the “Phase I metabolite in blood (formation), cirrhotic vs control, experimental data” value in [11] is reported as “decreased formation”. Besides, in [8], the “Mean fraction of dose excreted to urine” value was 11%. In addition, in [2] (2017), the Recovered from urine entry was “about 10%”. Also, in data set [13], the “Mean fraction of dose excreted to bile” value was 0.8%. Also, the Fraction unbound in [4] (setting [14]) was 0.00191. Also, the Lipophilicity in data set [6] (setting [16]) is 0.86; in data set [6] (setting [17]) it was 0.49; in data set [6] (setting [18]), 0.75; in data set [6] (optimized, human, ref Krauss et al., 2017) it was 2.139. In addition, the Solubility in data set [6] (setting [16]) was 89.8 µg/mL.
As for `CC(C)(C)NCC(O)COc1ccc(NC(=O)NC2CCCCC2)cc1` (stereo not drawn) [Talinolol, talinolol], in data set [8], the “Mean fraction of dose excreted to urine” value was 4% and < 5%. In data set [2] (after IV administration, ref Terhaag et al., 1989), the “Median fraction of dose found in bile” value is recorded as 9.3%. Besides, the “Dose recovered unchanged from urine” value in data set [2] (ref Trausch et al., 1995) is “about 60%”. For the same compound, in [13] (2 h bile), the “Amount in bile, cirrhotic vs control mice” value was “significantly increased”. Besides, in data set [13], the “Mean fraction of dose excreted to bile” value is 0.5% and < 1%. Further, the Fraction unbound was 0.39 in data set [3] (measured, ref Obach et al., 2008); 0.45 in [4] (possibly optimized, ref Tubic et al., 2006); 0.65 in [10] (mouse, optimized (talinolol: possibly optimized), ref Thiel et al., 2015). Besides, the Lipophilicity is recorded as 2.91 in data set [6] (setting [16]); 2.8 in [6] (setting [17]); 2.3 in [6] (setting [18]); 1.08 in data set [6] (ref Gramatté et al., 1996). Also, the octanol-water partition coefficient in data set [6] (at pH=7.5, ref Gramatté et al., 1996) is 12. In addition, in [6] (ref Gramatté et al., 1996), the Solubility was 3.4 mM. Also, the “pKa (Base)” value in data set [6] (ref Matthaei et al., 2016) is given as 9.3. Further, in data set [6] (rounded values, ref DrugBank), the “logP from the DrugBank database as quoted in text” value is given as 2.9.
For `COc1ccc2c3c1O[C@H]1[C@@H](O)C=C[C@H]4[C@@H](C2)N(C)CC[C@@]341` [Codeine, codeine], the “Measured plasma concentrations of parent compound in cirrhotic mice” value in [11] (accompanying increased glucuronides) is recorded as “decreased”. Moreover, in data set [8], the “Mean fraction of dose excreted to urine” value came out at 3%. Besides, the “Mean fraction of dose excreted to bile” value in data set [13] was “below 1%”. Besides, the Fraction unbound in [3] (DrugBank, ref Wishart et al., 2017) was 0.75; in data set [3] (setting [19]), 0.44. Besides, the Lipophilicity in data set [6] (setting [15]) was 1.39; in data set [6] (setting [20]) it was 1.19.
Regarding `OCc1ncc2n1-c1ccc(Cl)cc1C(c1ccccc1F)=NC2` [OH-MDZ, 1-hydroxymidazolam], the “Mean fraction of dose excreted to urine” value in data set [8] was “below 1%”. Besides, the Fraction unbound is listed as 0.15 in [3] (measured, ref Nguyen et al., 2016) and 0.01 in [10] (setting [18]). Besides, the Lipophilicity is on record as 3.09 in [6] (setting [16]); 2.48 in [6] (setting [17]); 2.5 in data set [6] (setting [21]); 2.6 in data set [6] (ref Vossen et al., 2007). In addition, the Solubility in data set [6] (setting [16]) was 25.4 µg/mL. Also, the figures for the “pKa, ampholyte, first value” in data set [6] (setting [21]) and in data set [6] (setting [22]) were 3.63 and 4.99, respectively. The “pKa, ampholyte, second value” is given as 13.6 in data set [6] (setting [21]) and 13.95 in data set [6] (setting [22]).
